Measurements reported in patent US6472348B1, “Pyridone derivatives and herbicides” (Kumiai Chemical Industry Co., Ltd., priority 1996, dated 2002).

system: green foxtail (Se); experiment: Test Example 4: crop plant selectivity by upland field soil treatment (cotton), herbicidal effects; assay type: in vivo; parameters: scale not given here; details: dose 6.3 g ai/10 a, evaluated 21st day after application
How it was run: (§1)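 Upland soil treatment: crop and weed seeds in sand pots under a soil cover, compound applied to soil, greenhouse-grown, rated visually 21 d later.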

SMILES	Herbicidal effects Se
COCCOc1cc(-c2ccc(C(F)(F)F)n(C)c2=O)c(F)cc1Cl [1-170]	5

system: pale smartweed (Po); experiment: as above; assay type: in vivo; parameters: scale not given here; details: dose 6.3 g ai/10 a, evaluated 21st day after application
How it was run: as §1

SMILES	Herbicidal effects Po
COCCOc1cc(-c2ccc(C(F)(F)F)n(C)c2=O)c(F)cc1Cl [1-170]	5

system: slender amaranth (Am); experiment: as above; assay type: in vivo; parameters: scale not given here; details: dose 6.3 g ai/10 a, evaluated 21st day after application
How it was run: as §1

SMILES	Herbicidal effects Am
COCCOc1cc(-c2ccc(C(F)(F)F)n(C)c2=O)c(F)cc1Cl [1-170]	5

system: soybean (Gl); experiment: Test Example 6: crop plant selectivity by upland field soil treatment (soybean), phytotoxicity; assay type: in vivo; parameters: scale not given here; details: dose 6.3 g ai/10a, 21st day after application
How it was run: (§2)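 Pre-emergence soil treatment; sand-filled pots, seeds sown then soil-covered; greenhouse culture; visual rating of weed control and soybean injury on day 21 post-application per standard scale.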

SMILES	Phytotoxicity Gl
COCCOc1cc(-c2ccc(C(F)(F)F)n(C)c2=O)c(F)cc1Cl [1-170]	2

system: China jute (Ab); experiment: Test Example 6: crop plant selectivity by upland field soil treatment (soybean), herbicidal effects; assay type: in vivo; parameters: scale not given here; details: dose 6.3 g ai/10a, 21st day after application
How it was run: as §2

SMILES	Herbicidal effects Ab
COCCOc1cc(-c2ccc(C(F)(F)F)n(C)c2=O)c(F)cc1Cl [1-170]	5

system: common lambsquarters (Ch); experiment: as above; assay type: in vivo; parameters: scale not given here; details: dose 6.3 g ai/10a, 21st day after application
How it was run: as §2

SMILES	Herbicidal effects Ch
COCCOc1cc(-c2ccc(C(F)(F)F)n(C)c2=O)c(F)cc1Cl [1-170]	5

system: green foxtail (Se); experiment: as above; assay type: in vivo; parameters: scale not given here; details: dose 6.3 g ai/10a, 21st day after application
How it was run: as §2

SMILES	Herbicidal effects Se
COCCOc1cc(-c2ccc(C(F)(F)F)n(C)c2=O)c(F)cc1Cl [1-170]	5

system: pale smartweed (Po); experiment: as above; assay type: in vivo; parameters: scale not given here; details: dose 6.3 g ai/10a, 21st day after application
How it was run: as §2

SMILES	Herbicidal effects Po
COCCOc1cc(-c2ccc(C(F)(F)F)n(C)c2=O)c(F)cc1Cl [1-170]	5

system: slender amaranth (Am); experiment: as above; assay type: in vivo; parameters: scale not given here; details: dose 6.3 g ai/10a, 21st day after application
How it was run: as §2

SMILES	Herbicidal effects Am
COCCOc1cc(-c2ccc(C(F)(F)F)n(C)c2=O)c(F)cc1Cl [1-170]	5

system: wheat (Tr); experiment: Test Example 9: crop plant selectivity by upland field foliage treatment (wheat), phytotoxicity; details: dose 1.6 g ai/10a, 14th day after treatment;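 also: grade of crop injury; 5 = at least 90%; 4 = 70 to 90%; 3 = 50 to 70%; 2 = 30 to 50%; 1 = 10 to 30%; 0 = under 10%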
How it was run: (§3)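 Wheat and weeds sown in sand-filled pots, grown 2 weeks in a greenhouse, then foliage-treated. Herbicidal effect and crop phytotoxicity were scored 14 days after treatment against a rating scale.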

SMILES	Phytotoxicity Tr
COCCOc1cc(-c2ccc(C(F)(F)F)n(C)c2=O)c(F)cc1Cl [1-170]	1

system: China jute (Ab); experiment: Test Example 9: crop plant selectivity by upland field foliage treatment (wheat), herbicidal effects; assay type: in vivo; parameters: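 grade of growth control; 5 = at least 90%; 4 = 70 to 90%; 3 = 50 to 70%; 2 = 30 to 50%; 1 = 10 to 30%; 0 = under 10%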; details: dose 1.6 g ai/10a, 14th day after treatment
How it was run: as §3

SMILES	Herbicidal effects Ab
COCCOc1cc(-c2ccc(C(F)(F)F)n(C)c2=O)c(F)cc1Cl [1-170]	5

system: common lambsquarters (Ch); experiment: as above; assay type: in vivo; parameters: scale not given here; details: dose 1.6 g ai/10a, 14th day after treatment
How it was run: as §3

SMILES	Herbicidal effects Ch
COCCOc1cc(-c2ccc(C(F)(F)F)n(C)c2=O)c(F)cc1Cl [1-170]	5

system: pale smartweed (Po); experiment: as above; assay type: in vivo; parameters: scale not given here; details: dose 1.6 g ai/10a, 14th day after treatment
How it was run: as §3

SMILES	Herbicidal effects Po
COCCOc1cc(-c2ccc(C(F)(F)F)n(C)c2=O)c(F)cc1Cl [1-170]	5

system: slender amaranth (Am); experiment: as above; assay type: in vivo; parameters: scale not given here; details: dose 1.6 g ai/10a, 14th day after treatment
How it was run: as §3

SMILES	Herbicidal effects Am
COCCOc1cc(-c2ccc(C(F)(F)F)n(C)c2=O)c(F)cc1Cl [1-170]	5

system: corn (Ze); experiment: Test Example 11: crop plant selectivity by upland field foliage treatment (corn), phytotoxicity; details: upland field foliage treatment, dose 1.6 g ai/10a, 14th day after treatment
Experimental: (§4) (Test on Crop Plant Selectivity by Upland Field Foliage Treatment)
(§5) In a plastic pot (surface area: 600 cm^2) filled with sand, corn (Ze), pale smartweed (Po), slender amaranth (Am), common lambsquarters (Ch) and China jute (Ab) were sown and cultured in a green house for 2 weeks. […] The plants were then cultured in a green house, and the evaluation of the herbicidal effects and phytotoxicity was conducted on the 14th day after the treatment in accordance with the standards as identified in Table 47.

SMILES	Phytotoxicity Ze
COCCOc1cc(-c2ccc(C(F)(F)F)n(C)c2=O)c(F)cc1Cl [1-170]	0

system: China jute (Ab); experiment: Test Example 11: crop plant selectivity by upland field foliage treatment (corn), herbicidal effects; assay type: in vivo; parameters: scale not given here; details: upland field foliage treatment (corn test), dose 1.6 g ai/10a, 14th day after treatment
Experimental: as §4, §5

SMILES	Herbicidal effects Ab
COCCOc1cc(-c2ccc(C(F)(F)F)n(C)c2=O)c(F)cc1Cl [1-170]	5

system: common lambsquarters (Ch); experiment: as above; assay type: in vivo; parameters: scale not given here; details: upland field foliage treatment (corn test), dose 1.6 g ai/10a, 14th day after treatment
Experimental: as §4, §5

SMILES	Herbicidal effects Ch
COCCOc1cc(-c2ccc(C(F)(F)F)n(C)c2=O)c(F)cc1Cl [1-170]	5

system: pale smartweed (Po); experiment: as above; assay type: in vivo; parameters: scale not given here; details: upland field foliage treatment (corn test), dose 1.6 g ai/10a, 14th day after treatment
Experimental: as §4, §5

SMILES	Herbicidal effects Po
COCCOc1cc(-c2ccc(C(F)(F)F)n(C)c2=O)c(F)cc1Cl [1-170]	5

system: slender amaranth (Am); experiment: as above; assay type: in vivo; parameters: scale not given here; details: upland field foliage treatment (corn test), dose 1.6 g ai/10a, 14th day after treatment
Experimental: as §4, §5

SMILES	Herbicidal effects Am
COCCOc1cc(-c2ccc(C(F)(F)F)n(C)c2=O)c(F)cc1Cl [1-170]	5
